The record followed here is patent US12252457B2, “Compositions and methods for reducing tactile dysfunction, anxiety, and social impairment” (President and Fellows of Harvard College, priority 2018, dated 2025).

Entries after “also recorded” stand apart in the source; their conditions may differ.

The subject of the assay is genetic and environmental mouse models of ASD. As to the kind of experiment: Tactile PPI, air puff response and startle amplitude after acute midazolam or isoguvacine in ASD mouse models. The assay is classed as in vivo. As for the experimental part: FIGS. 19A-19N show acute administration of the peripherally-restricted GABAA receptor agonist isoguvacine improves tactile hypersensitivity in five genetic and one environmental model of ASD. […] Two-way ANOVA with post-hoc Sidak's test, *, p<0.05. FIG. 19B: Response to a light air puff stimulus alone in mice following i.p. administration of either saline or 2 mg/kg midazolam treatment. Responses are expressed as percent of startle response to a 125 dB noise. Two-way ANOVA with post-hoc Sidak's test, *, p<0.05. FIG. 19C: Magnitude of startle response to a 125 dB noise in mice following i.p. administration of either saline or 2 mg/kg midazolam treatment. Responses are expressed as percent of startle response to a 125 dB noise. Two-way ANOVA with post-hoc Sidak's test, *, p<0.05. FIG. 19D: Magnitude of startle response to a 125 dB noise in mice following i.p. administration of saline, midazolam (2 mg/kg) or a peripherally-restricted GABAA receptor agonist, isoguvacine (2 mg/kg). Responses are expressed as percent of startle response to a 125 dB noise. Two-way ANOVA with post-hoc Sidak's test, *, p<0.05. FIGS. 19E-19G: Liquid chromatography mass spectrometry (LC-MS) quantified isoguvacine concentrations in cerebrospinal fluid (CSF) (FIG. 19E), blood (FIG. 19F) or liver (FIG. 19G) samples of mice treated with: i.p. saline, i.p. isoguvacine (“Iso.”, 20 mg/kg, samples collected 1, 3 or 24 hours post-injection), intracerebral injection isoguvacine (20 mg/kg, 1 hour post-injection), i.p. diazepam (“DZ”, 20 mg/kg, 1 hour post injection) or intracerebral injection diazepam (20 mg/kg, 1 hour post injection). FIG. 19H: Normalized peak chloride flux through α1β3γ2- and α2β3γ2-containing GABAA receptors in response to isoguvacine application. […] FIGS. 19I-19K: GABAA receptor subunit RNA expression levels across peripheral somatosensory neuron subtypes, for the alpha (FIG. 19I), beta (FIG. 19J), and gamma (FIG. 19K) subunit types. […] Two-way ANOVA with post-hoc Sidak's test, *, p<0.05. FIG. 19M: Response to a light air puff stimulus alone in mice following i.p. administration of either saline or 2 mg/kg isoguvacine treatment. Responses are expressed as percent of startle response to a 125 dB noise. Two-way ANOVA with post-hoc Sidak's test, *, p<0.05. FIG. 19N: Magnitude of startle response to a 125 dB noise in mice following i.p. administration of either saline or 2 mg/kg isoguvacine treatment. Responses are expressed as percent of startle response to a 125 dB noise. Two-way ANOVA with post-hoc Sidak's test, *, p<0.05.
Results of the GABAA receptor restoration experiments raised the possibility that pharmacological treatment with a GABAA receptor agonist may improve tactile reactivity in Mecp2 mutant mice. It was therefore tested whether benzodiazepines, which are positive allosteric modulators (PAMs) of GABAA receptors, would attenuate hairy skin hypersensitivity in Mecp2 mutant mice. Advillin^Cre; Mecp2^f/y mutant mice and their control littermates were administered either vehicle alone or the benzodiazepine midazolam (2 mg/kg, i.p.) in a pseudorandomized manner, and then subjected to tactile PPI. On the following day, treatment regimens were reversed, and tactile PPI was repeated.
While traditional blood-brain barrier (BBB) penetrating benzodiazepines and non-benzodiazepine GABAA receptor PAMs are useful for treating some ASD-related symptoms in patients, including acute anxiety, significant adverse effects including sedation and addictive potential are common (Gudex, 1991). Furthermore, long-term benzodiazepine use is linked to cognitive impairment across multiple domains, including short-term verbal memory and attention (Golombok et al., 1988; Tata et al., 1994), leading to general reluctance within the medical community for prescribing benzodiazepines and other GABAA receptor PAMs to young children (Howes et al., 2018). […]

For the molecule `O=C(O)C1=CCNCC1` [Isoguvacine, isoguvacine], where the note is “Advillin^Cre, Gabrb3^f/f mice (homozygous deletion), 2 mg/kg i.p.”, the “hairy skin sensitivity (tactile PPI)” value is “no reduction in hairy skin sensitivity”. Also, the “tactile hypersensitivity (tactile PPI performance and responsivity to air puff)” value (Advillin^Cre, Mecp2^f/y and Advillin^Cre, Gabrb3^f/+ mutant mice, acute 2 mg/kg i.p.) is “significantly reduced tactile hypersensitivity; also recorded: improved tactile hypersensitivity”. For the same molecule, the hairy skin hypersensitivity entry is “attenuated hairy skin hypersensitivity” (Shank3, Fmr1, and Cntnap2 mutant mice, acute 2 mg/kg i.p.); “improvement in hairy skin hypersensitivity” (mice exposed to polyinosinic:polycytidylic acid at E12.5 (maternal immune activation model)).
